Laboratory results from PubChem BioAssay (NCI).
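Step 1: Grow cells in 96-well plates. Step 2: Expose to compound for 48 hours at 5 concentrations. Step 3: Interpolate endpoints linearly; if unreached, use highest concentration. At the GI50, growth is halved. TGI: concentration producing complete growth inhibition.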

What was measured:
Experiment in all cases: NCI tumour cell line growth inhibition, 48 h
[1] = system: ACHN renal
[2] = system: CAKI-1 renal
[3] = system: HL-60(TB) leukemia
[4] = system: IGROV1 ovarian
[5] = system: KM12 colon
[6] = system: MALME-3M melanoma
[7] = system: SF-539 CNS
[8] = system: SK-MEL-28 melanoma
[9] = system: SK-OV-3 ovarian
[10] = system: SNB-75 CNS

Row | SMILES | GI50 [1] [µM] | TGI [1] [µM] | GI50 [2] [µM] | TGI [2] [µM] | GI50 [3] [µM] | TGI [3] [µM] | GI50 [4] [µM] | TGI [4] [µM] | GI50 [5] [µM] | TGI [5] [µM] | GI50 [6] [µM] | TGI [6] [µM] | GI50 [7] [µM] | TGI [7] [µM] | GI50 [8] [µM] | TGI [8] [µM] | GI50 [9] [µM] | TGI [9] [µM] | GI50 [10] [µM] | TGI [10] [µM]
1 | O=C(NCCCNc1cc(-c2cn(-c3ccccc3)nc2-c2cccc(O)c2)ccn1)c1ccccc1 | 3.47 | > 100 | 2.48 | 15.3 | 1.68 | 4.19 | 4.2 | 59.6 | 3.34 | 14.8 | 1.73 | 4.53 | 3.02 | 10.3 | 2.18 | 6.08 | 6.63 | 92.8 | 1.68 | 46.9
2 | CC1(C)OC(=O)C=C([O-])O1.CC1(C)OC(=O)C=C([O-])O1.O=S(=O)([O-])c1ccc([O-])c2ncccc12.O=S(=O)([O-])c1ccc([O-])c2ncccc12.[Ti+4] | 50.3 | > 100 | > 100 | > 100 | 34.1 | > 100 | > 100 | > 100 | > 100 | > 100 | > 100 | > 100 | 78.5 | > 100 | > 100 | > 100 | > 100 | > 100 | > 100 | > 100
3 | O=C1C=C(Br)C(=O)C12CCc1ccccc12 (stereo not drawn) | – | 24.7 | – | 16.3 | – | 25.2 | – | 39.3 | – | 44.6 | – | 29.5 | – | 35.6 | – | 27.2 | – | 42.6 | – | 29.5
4 | Cc1nc2sc(C(=O)Nc3cccc4ccccc34)c(N)c2cc1C(=O)c1ccccc1 | 2.73 | > 50 | 1.62 | > 50 | 1.45 | 4.31 | 1.8 | > 50 | 1.86 | > 50 | 3.86 | > 50 | 1.06 | 2.71 | 4.95 | > 50 | 1.28 | > 50 | 1.04 | > 50
5 | COC1CC2C=C(C)/C=C/C=C/C(=O)NC(c3ccccc3)C/C=C/CCC(O)CC(=O)C2=C1O (stereo not drawn) | 0.311 | 1.14 | 0.314 | 1.01 | 0.153 | 0.406 | 0.444 | 1.84 | 0.332 | 1.26 | 0.214 | 1.19 | 0.28 | 0.912 | 0.703 | 2.03 | 0.369 | 1.46 | 0.208 | 0.828
6 | O=c1nc(Nc2cccc(Cl)c2)oc2cc(Cl)oc(=O)c12 | 5 | 24.8 | 5.93 | 21.5 | 10.8 | 55.2 | 5.13 | 21.1 | 11.4 | 31.8 | 4.36 | 18.8 | 4 | 21 | 8.76 | 22.7 | 17.2 | 66.1 | 6.96 | 21.4
7 | COc1ccc(-c2cc(/C=C3\C(=O)Nc4ccc(Cl)cc43)[nH]n2)cc1 | 5.71 | 18.4 | 3.31 | 13.8 | 3.04 | 10.4 | 5 | 17.9 | 3.96 | 19.6 | 6.85 | 20 | 2.63 | 7.68 | 6.6 | 19.5 | 4.07 | 13.8 | 2.26 | 8.49
8 | COC(=O)c1sc(C(=O)OC)c2c1CSC2 | – | > 100 | – | > 100 | – | > 100 | – | > 100 | – | > 100 | – | > 100 | – | > 100 | – | > 100 | – | > 100 | – | 57.7
9 | CC(C)c1ccc(/C(C(=O)O)=C(\O)C(=O)O)cc1 | – | > 100 | – | > 100 | – | > 100 | – | > 100 | – | > 100 | – | > 100 | – | > 100 | – | > 100 | – | > 100 | – | > 100
10 | COc1ccc(C(N)=O)cc1N=NN(C)C | – | > 100 | – | > 100 | – | > 100 | – | > 100 | – | > 100 | – | > 100 | – | > 100 | – | > 100 | – | > 100 | – | > 100
11 | COc1cccc(C(=O)N2CCc3ccccc32)c1OC | – | > 100 | – | > 100 | – | 91.1 | – | > 100 | – | > 100 | – | > 100 | – | > 100 | – | > 100 | – | > 100 | – | > 100
12 | CCNC(=O)C#CC(=O)NCC | > 10 | > 100 | > 10 | > 100 | > 10 | > 53.9 | – | > 100 | > 10 | > 100 | > 100 | > 100 | > 10 | > 100 | > 100 | > 100 | – | > 100 | > 10 | > 100
13 | C=C1C(=O)O[C@H]2[C@H]1CC/C(COC(=O)NCc1ccc(Cn3c(=O)sn(CCCCl)c3=O)cc1)=C\CC[C@@]1(C)O[C@@H]21 | 1.66 | 3.05 | 2.05 | 5.33 | 0.967 | 3.77 | 1.78 | 3.88 | 4.92 | 17.5 | 1.34 | 3.05 | 1.74 | 3.3 | 1.69 | 3.16 | 18.3 | 32.2 | 2.03 | 11.4
14 | N#Cc1cnc2cc(OC[C@@H](O)CO)c(NC(=O)CC3CSSC3)cc2c1Nc1ccc(OCc2cccc(F)c2)c(Cl)c1 | 1.1 | 2.87 | 6.34 | 18.9 | 0.589 | 1.47 | 0.288 | 1.11 | 0.112 | 0.251 | 0.215 | 0.938 | 0.725 | 1.47 | 0.0632 | 0.136 | 0.567 | 1.27 | 0.738 | 1.58
